Laboratory results taken from patent US11369110B2, “Compositions and methods for enhancing microbial stability” (NOVOZYMES BIOAG A/S, priority 2013, dated 2022).

Assays:
[1] = system: B. elkani SEMIA 587 and B. elkani SEMIA 5019; experiment: Liquid inoculant survivability in the presence of benzyl hemi-formal (Example 1); assay type: cell-based, Bradyrhizobium elkani; conditions: at the concentration tested; Table 2
Experimental: (§1) The activity of two microbially stabilizing compounds, yeast extract and albumin, were tested for reducing the effects of the preservative benzyl hemi-formal (at a concentration reflecting that provided by the current recommendation for a commercial insecticide that includes that preservative).
(§2) Using conventional aseptic techniques, 10 ml of a commercial liquid inoculant containing B. elkani SEMIA 587 and B. elkani SEMIA 5019 (Nitragin Optimize II, commercially available from Novozymes) was transferred to a series of sterile test tubes, to which 0.7 ml of a 2% solution containing benzyl hemi-formal was added and, in the corresponding tubes, 0.3 g of Yeast extract (commercially available from Merck) or 0.3 g Albumin (commercially available from SIGMA) were incorporated. A control of bacterial survival consisting of the inoculants without a microbial stabilizing compound was tested for comparison.
(§3) The tubes were mixed using a vortex agitator, transferred to a 30° C. orbital shaker. After 20 minutes incubation (Time 0), 0.1 ml samples were taken, and conventionally diluted 1/10 in a series of tubes containing 0.9 ml of sterile saline solution (0.85% NaCl in distilled water). […] Colonies were counted after seven days incubation. The number of colony forming units per ml (CFU ml^−1) was calculated taking into account the plated dilutions and the plated volume. […]

[2] = system: B. japonicum SEMIA 5079 and B. japonicum SEMIA 5080; experiment: Liquid inoculant survivability in the presence of benzyl hemi-formal (Example 4); assay type: cell-based, Bradyrhizobium japonicum; conditions: at the concentration tested; Table 8
Experimental: as §1
as §2, with “japonicum” for “elkani”, “5079” for “587”, “5080” for “5019”, “CellTech HC,” for “Optimize II,”
as §3

[3] = system: B. elkani SEMIA 587 and B. elkani SEMIA 5019; experiment: Liquid inoculant survivability in the presence of insecticide containing benzyl hemi-formal (Example 2); assay type: cell-based, Bradyrhizobium elkani; conditions: Table 4
Experimental: The general protocol described in Example 1 was modified to process larger samples. A commercial insecticide containing benzyl hemi-formal was tested at concentrations that would emulate the recommended doses both for the inoculants and the insecticide.
(§4) Sterile 250 ml erlenmeyers containing sterile magnetic stirrers were used instead of test tubes. The commercial insecticide was transferred to a series of erlenmeyers and the stated amounts of microbial stabilizing compounds (yeast extract and soy meal peptone from Merck and tryptophan from Ajinomoto) were premixed at 250 rpm for 6 hours.
To each of the corresponding erlenmeyer flasks, 30 ml of the inoculants (as described in example 1) was added, mixed, and samples were obtained immediately and at 2 hr intervals. Samples were processed as described in Example 1.

[4] = system: B. japonicum SEMIA 5079 and B. japonicum SEMIA 5080; experiment: Liquid inoculant survivability in the presence of insecticide containing benzyl hemi-formal (Example 5); assay type: cell-based, Bradyrhizobium japonicum; conditions: Table 10
Experimental: The general protocol described in Example 4 was modified to process larger samples. A commercial insecticide containing benzyl hemi-formal was tested at concentrations that would emulate the recommended doses both for the inoculants and the insecticide.
as §4
To each of the corresponding erlenmeyer flasks, 30 ml of inoculant (as described in example 4) was added, mixed, and samples were obtained immediately and at 2 hr intervals. Samples were processed as described in Example 4.

Molecule	Effect on the deleterious effects induced by benzyl hemi-formal (in words) [1]	Effect on the deleterious effects induced by benzyl hemi-formal (in words) [2]	Effect on the deleterious effects induced by benzyl hemi-formal containing agrochemical on a microbial population (in words) [3]	Effect on the deleterious effects induced by benzyl hemi-formal containing agrochemical on a microbial population (in words) [4]
albumin	reduce the deleterious effects	reduce the deleterious effects	–	–
N[C@@H](Cc1c[nH]c2ccccc12)C(=O)O [tryptophan]	–	–	reduce the deleterious effects	reduce the deleterious effects
